Data as given in patent US20130190345A1, “MATRINIC ACID/MATRINE DERIVATIVES AND PREPARATION METHODS AND USES THEREOF” (priority 2010, published 2013).
Values after ≈ are worked out from the molar mass of the structure shown.

Experiments:
[1] = Acute toxicity of compound in mice; type: in vivo
Description: Kunming mice (purchased from Institute of Animal, Chinese Academy of Medical Sciences), 18-20 g, were weighed and randomly divided in groups, 10 mice per group, half male and half female, intraperitoneally injected with DM122 solution, in concentration of 0, 250 mg/kg, 500 mg/kg and 1000 mg/kg once. The death of animals was observed. On the 7th day, the animals were weighed, blood samples were taken and functional indexes (GOT, GPT, BUN and CRE) of liver and kidney in blood were determined.
Since Compound 6b had relatively high activity on anti-HBV and anti-HCV. The inventors had used it as a candidate of anti-hepatitis drug to evaluate its safety in animal body. Kunming mice were used for test of safety and acute toxicity of Compound 6b (13-methoxy matrine), via oral administration, administration doses were separately 250, 500 and 750 mg/kg once, then the mice were strictly monitored for 7 days.

[2] = tested on: Lamivudine-resistant strain (LRS M204V L180M) HBV; assay: Inhibition effects on drug resistant type HBV (Real-time PCR of HBV DNA, Huh-7.5 cells); type: cell-based; details: 36 h; lamivudine 0.16n/mL, compound 6b 37 μg/mL
Description: (§1) Lamivudine-resistant strain (LRS M204V L180M) was used to transfect Huh-7.5 cells, lamivudine was used as positive control, lamivudine (0.16n/mL) and compound 6b (37 μg/mL) were separately used to treat wild type and LRS type HBV, after 36 h, Real-time PCR was used to determine HBV DNA levels, respectively, and the results were shown in FIG. 12.

wild type HBV = assay: Inhibition effects on wild type HBV (Real-time PCR of HBV DNA, Huh-7.5 cells); type: cell-based; details: 36 h; lamivudine 0.16n/mL, compound 6b 37 μg/mL
Description: as §1

Hsc70 [3] = assay: Detection of Hsc70 gene expression level upon action of compound on 2.2.15 cells (real-time fluorescent quantified PCR); type: cell-based; parameters: Hsc70 mRNA / Hsc70 down-regulation rate (%): unit not given here; details: 2.2.15 cells; for Hsc70 mRNA: down-regulation of liver cell Hsc70 gene; for Hsc70 inhibition rate (down-regulation of Hsc70 expression activity, expressed in relative OMT ratio): relative to OMT (= 1)
Procedure, shortened: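 2.2.15 cells grown 24 hr in 10% FCS medium, then exposed to compounds (20 mg/ml MEM stock diluted in medium) for 12, 24 or 36 hr; 400 μg/ml OMTR as control. Hsc70 mRNA and HBV DNA changes measured by real-time fluorescent quantitative PCR.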

HCV = assay: Inhibition effects of compounds on HCV in Huh7.5 cultured cell after HCV infection; type: cell-based; details: for EC50 (half effective concentration): virus not given, stands beside HCV inhibition rate
Procedure, shortened: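 Huh7.5 cells, cultured 24 h, were infected with HCV at 45 IU/cell and given drug in medium for 72 h at 37° C. Intracellular HCV and GAPDH RNA quantified by one-step qRT-PCR, with inhibition analysed against virus control; three repeats.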

Hsc70 [4] = assay: Hsc70 protein in virus particles in supernatant from HCV-infected Huh7.5 cultured cell liquid; type: cell-based; details: HCV-infected Huh7.5 cells, 96 h, Western blotting (FIG. 8)
Description: Huh7.5 cells were inoculated in an amount of 3×10^4/cm^2, cultured in 10 cm culture dish (58.1 cm^2/well) for 6 h, infected with HCV and simultaneously added with DM-122 drug solutions with different concentration and positive control Intron A, after action for 96 h, the supernatant from cultured cell liquid was subjected to ultra-high speed centrifugation to separate virus particles, Western blotting was used to analyze the contents of Hsc70 and GAPDH proteins in virus particles.

DHBV = DHBV animal test; type: in vivo, Peking ducks
Description: Infection and administration: Peking ducks (purchased from Institute of Animals, Chinese Academy of Medical Sciences) were infected via foot vein with 0.2 ml DHBV positive serum. […] The control group was administered with physiological saline (1 ml); positive control was administered with 3TC (lamivudine), in dose of 50 mg/kg (5 mg/ml, 1 ml).

2.2.15 cells = assay: Drug TC50 by MTT detection; type: cell-based; details: Reed-Muench
Description: 2.2.15 cells (all cells were purchased from Vertex Pharmaceutical Co., USA) in exponential growth phase were inoculated on 96-well culture plate, 2×10^5 cells/well, added with culture media containing PFA diluted in different concentration rates, 3 wells for each diluted concentration, placed in 37° C. CO2—containing incubator and cultivated for 48 h; the supernatant was discarded, 100 μl of MTT (0.5 mg/ml) in culture medium was added, cultivation was continuously performed at 37° C. for 4 h; each well was added to 100 μl of 50% DMF-20% SDS destaining solution, stood at 37° C. overnight; ELISA was used to measure optical density at wavelength of 570 nm (0D570).
In each experiment, 3 cell control wells and 3 blank controls well were set, the results were used in formula, (cell control OD570-drug-medicated cell OD570)/cell control OD570, to calculate cell death rate (%), and Reed-Muench method was used to calculate half toxic concentration TC50.

Hsc70 [5] = assay: Inhibition effects of compound on Hsc70 in Huh7.5 cultured cell (qRT-PCR, Western blotting); type: cell-based; parameters: key to Hsc70 down-regulation rate (%): “—” represents no significant inhibition rate
Description: 2×10^5/ml Huh7.5 cells (purchased from Vertex Pharmaceutical Co., USA) were inoculated in an amount of 3 ml on 6-well culture plate, placed in an incubator with 37° C., 5% CO2 content, saturation humidity, and cultured for 24 h, added with different drug solutions (DM122) formulated with culture medium, and cell control was set. Cultivation was continuously performed in the incubator with 37° C., 5% CO2 content, saturation humidity for 24 h, a kit for RNA extraction was used to extract intracellular RNA from the cells, and one-step qRT-PCR was used to determine intracellular contents of Hsc70 and GAPDHRNA. After the cultivation of cells was performed for 48 h, the cells were digested and harvested, then the cells were split with CytoBuster™ Protein Extraction Buffer that contained many kinds of protease inhibitors, total intracellular proteins were extracted, and Western blotting was used to analyze the contents of Hsc70 and GAPDH proteins. In comparison with the cell control, the inhibition effects on Hsc70 upon action of different drugs were analyzed.

SMILES: CCOC1CC(=O)N2CC3CCCN4CCCC(C34)C2C1 (stereo not drawn) [Compound 6b, 13-ethoxy matrine]
- oral LD50 ([1]; mice, oral administration once): greater than 1000 mg/kg
- death of mice ([1]; oral once, 250, 500 and 750 mg/kg): no mouse died
- change of bodyweight ([1]; oral once, 250, 500 and 750 mg/kg (FIG. 11A)): no significant change of bodyweight
- AST, ALT, BUN and CRE indexes in blood ([1]; oral, 750 mg/kg dose group (FIG. 11B)): no significant abnormality
- inhibition rate on drug-resistant HBV [2]: 32%
- inhibition rate on wild type HBV (wild type HBV): 35%
- Hsc70 mRNA (Hsc70 [3]): 74.1 ± 0.11
- anti-HCV activity (HCV nucleoprotein and Hsc70 protein levels) (HCV; HCV-infected Huh7.5 cells, 200 μg/mL, Western blotting (FIG. 7B)): significant activity on anti-HCV
- activity against HCV (HCV RNA level) (HCV; HCV-infected Huh7.5 cells, 200 μg/mL, real-time RT-PCR): best activity against HCV

SMILES: O=C(O)CCCC1NCC2CCCN3CCCC1C23 (stereo not drawn) [DM-100, matrinic acid]
- Hsc70 inhibition rate (down-regulation of Hsc70 expression activity, expressed in relative OMT ratio) (Hsc70 [3]): 1.02
- melting point: 185.7 to 187.7 °C

SMILES: COc1ccc(CN2CC3CCCN4CCCC(C2CCCC(=O)O)C34)cc1 (stereo not drawn) [DM-122, N-(4-methoxybenzyl) matrinic acid]
- influence on body weight of mice ([1]; mouse, in vivo): no influence on body weight of mice
- influence on liver and kidney functions (GOT, GPT, BUN, CRE) ([1]; mouse, in vivo, ip): no influence on liver and kidney functions
- Hsc70 protein content in virus particles in supernatant (Hsc70 [4]): reduced the Hsc70 protein content in virus particles
- HBVDNA in liver, inhibition rate (DHBV; duckling, oral 37.5 mg/kg twice per day, 15 days (FIG. 1)): −5.14%
- activity against hepatitis B virus in DHBV-infected ducks (HBV DNA in liver and serum) (DHBV; oral 150, 75, 37.5 mg/kg twice per day, 15 days): good activity against hepatitis B virus
- Hsc70 inhibition rate (down-regulation of Hsc70 expression activity, expressed in relative OMT ratio) (Hsc70 [3]): 1.56
- CC50 (concentration to cause poisoning in half cells) (2.2.15 cells): >1000 mg/L
- Hsc70 down-regulation rate (%) (Hsc70 [5]; 200 ug/ml (upper data)): 36.8 ± 1.4%
- Hsc70 down-regulation rate (%) (Hsc70 [5]; 400 ug/ml (lower data)): —
- inhibition of intracellular Hsc70 mRNA (Hsc70 [5]; Huh7.5 cells, 24 h, qRT-PCR (FIG. 4)): dose-dependent inhibition effects
- inhibition of intracellular Hsc70 protein (Hsc70 [5]; Huh7.5 cells, 48 h, Western blotting (FIG. 5)): dose-dependent inhibition effects
- HCV inhibition rate (%) (HCV; 200 ug/ml (upper data)): 77.2 ± 4.8%
- HCV inhibition rate (%) (HCV; 400 ug/ml (lower data)): 88.0 ± 4.0%
- inhibition of intracellular HCV Core and Hsc70 proteins (HCV; HCV-infected Huh7.5 cells, 72 h, Western blotting (FIG. 7A)): dose-dependent inhibition effects
- effect on intracellular HCV RNA (HCV; HCV-infected Huh7.5 cells, 72 h, qRT-PCR (FIG. 6)): dose-dependent effects
- EC50 (half effective concentration) (HCV): 252.35 mg/L (≈ 653 µM)

SMILES: CC(=O)N1C[C@H]2CCCN3CCC[C@@H](C23)C1CCCC(=O)O (stereo partly drawn)
- melting point: 127.4 to 129.6 °C

SMILES: Nc1ccn([C@@H]2CS[C@H](CO)O2)c(=O)n1 [lamivudine, reference compound]
- inhibition rate on drug-resistant HBV [2]: 28%
- inhibition rate on wild type HBV (wild type HBV): 64%

SMILES: COC1=CCC2C3CCCN4CCCC(CN2C1=O)C34 (stereo not drawn) [Compound 10, 14-methoxy sophocarpine]
- Hsc70 mRNA (Hsc70 [3]): 39.7 ± 0.16
- melting point: 110 to 111 °C

SMILES: CC(=O)N1C[C@@H]2CCCN3CCC[C@@H](C23)C1CCCC(=O)O (stereo partly drawn) [DM-101, N-acetyl matrinic acid]
- Hsc70 inhibition rate (down-regulation of Hsc70 expression activity, expressed in relative OMT ratio) (Hsc70 [3]): 0.73
- melting point: 196.8 to 198.9 °C

SMILES: O=C1C(O)C(O)CC2C3CCCN4CCCC(CN12)C34 (stereo not drawn) [Compound 8, 13,14-dihydroxyl matrine]
- Hsc70 mRNA (Hsc70 [3]): 38.9 ± 0.13
- melting point: 156 to 158 °C

SMILES: O=C1CC(O)CC2C3CCCN4CCCC(CN12)C34 (stereo not drawn) [Compound 5, β-hydroxyl matrine]
- Hsc70 mRNA (Hsc70 [3]): 50.4 ± 0.19
- melting point: 211 to 213 °C

SMILES: O=C(O)CCC[C@@H]1[C@H]2CCCN3CCC[C@@H](CN1Cc1ccc([N+](=O)[O-])cc1)[C@@H]23 [DM-123, N-(4-nitrobenzyl) matrinic acid]
- Hsc70 inhibition rate (down-regulation of Hsc70 expression activity, expressed in relative OMT ratio) (Hsc70 [3]): −1.6
- CC50 (concentration to cause poisoning in half cells) (2.2.15 cells): 455.7 mg/L (≈ 1130 µM)
- Hsc70 down-regulation rate (%) (Hsc70 [5]; 200 ug/ml (upper data)): 65.9 ± 6.9%
- Hsc70 down-regulation rate (%) (Hsc70 [5]; 400 ug/ml (lower data)): 70.5 ± 2.3%
- HCV inhibition rate (%) (HCV; 200 ug/ml (upper data)): 74.0 ± 7.8%
- HCV inhibition rate (%) (HCV; 400 ug/ml (lower data)): 81.1 ± 6.6%
- EC50 (half effective concentration) (HCV): 104.61 mg/L (≈ 261 µM)
